Measured values as given in patent US20130158024A1, “TRICYCLIC NECROSTATIN COMPOUNDS” (priority 2005, published 2013).
Entries after “also recorded” stand apart in the source; their conditions may differ.

Tests used:
LC3-II = LC3-II induction (autophagy marker) in cultured cells, western blotting; type: cell-based
Excerpt: FIG. 11 is a set of gels showing the detection of cleaved LC3 in CICD of cultured cells and in ischemic brain injury. […] Equal amounts of cellular proteins were subjected to SDS-PAGE and western blotting with anti-LC3 and tubulin antibodies. Arrows point to the LC3II. […] Isoflurane-anesthetized SV-129 mice were subjected to two hours transient middle cerebral artery (MCA) occlusion by the intraluminal filament techniques. Ischemic and contralateral areas of the brain were collected at indicated times following MCA, lysed in RIPA buffer and equal amount of total protein were subjected to western blotting using anti-LC3 and tubulin antibodies. FIG. 11C is similar to FIG. 11B, except that mice were injected with 2 μL of 4 mM 7-Cl-Nec-1 icy at four and six hours, and brains were collected at eight hours after occlusion.
In this and subsequent panels, cell viability was determined via ATP assay. Numbers represent viability normalized to that of the DMSO-treated cells in the absence of TNFα and menadione. Throughout, error bars represent standard deviations. […] Representative images are shown. […] The ratio of LC3-II to tubulin signals was calculated (“Ratio”) and normalized to the value in the control sample. […] In FIG. 28H, expression of beclin-1 (“Bec”) and tubulin (“Tub”) in the stable populations of cells in FIG. 28G was analyzed by western blotting.

Jurkat T cells = assay: Necrosis (CICD) of Jurkat T cells induced by Fas ligand, cycloheximide and zVAD, ATP assay; type: cell-based, human; details: FasL/CHX/zVAD
Outline: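 Jurkat cells given FasL (5 ng/ml), cycloheximide (1 μg/ml) and zVAD.fmk (100 μM) to drive CICD, with compounds at the indicated amounts. Viability read as ATP by CellTiter-Glo after 36 h, relative to untreated cells without FasL (100%).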

U937 cells = assay: Necrosis of U937 cells induced by TNFα and zVAD.fmk (primary and secondary screen), ATP assay; type: cell-based, human; details: U937, 72 hours
Protocol: We plated U937 cells in 384-well plates at 5,000-10,000 cells per well in 40-μl phenol red-free RPMI 1640 medium containing 100 μM zVAD.fmk and 40 ng ml^−1 human TNFα using a Multidrop dispenser (Thermo Electron). We added 100 nl of the DiverSetE (5 mg ml^−1 in DMSO, Chembridge) using a Seiko-based custom-built pin transfer robot (Institute of Chemistry and Cell Biology, Harvard Medical School). After 72 hours, we assessed cell viability using a luminescence-based ATP assay (ATPLite-M, PerkinElmer). We also dispensed cells not treated with TNFα in each plate as a positive control. We purchased Nec-1 and other preliminary positive hits from Chembridge for individual retesting.
Using a known paradigm of death receptor mediated caspase-independent cell death in human U937 cells, we established a high-throughput screen in 384 well format for small molecule inhibitors of caspase-independent cell death (CICD). In this system, U937 cells were induced to undergo CICD in the presence of TNFα and zVAD.fmk, and the rate of cell death was determined by an ATP-Lite-M assay, a commercial luminescence-based assay measuring cellular ATP levels (Packard). U937 cells were chosen because these cells can be induced to undergo CICD very efficiently upon TNFα/zVAD treatment in the absence of additional, stress-inducing sensitizing stimuli, such as CHX, making this system perfectly suited for reliable identification of CICD inhibitors. Furthermore, rapid suspension growth kinetics of U937 cells results in the availability of large quantities of cells, which translates into robust signals ideal for high throughput screening. ATP-Lite-M assay was chosen because among all the different assay systems tested, it gives the most consistent and robust signal, which is also critical for high throughput screening. Exposure of U937 cells to TNFα alone led to partial cell death, whereas co-treatment with TNFα and caspase inhibitor zVAD.fmk produced significant increase in the amount of cell death and ATP loss consistent with the published observations. In addition, in the presence of zVAD.fmk, the morphology of cell loss changed from apoptosis with cell shrinkage, nuclear fragmentation, membrane blebbing to necrosis, characterized by cell swelling, increase in cytosolic density, and early loss of plasma membrane integrity. Other cell death assays, such as an MTT assay (mitochondrial metabolism) and Sytox assay (permeability of the plasma membrane), were used as alternative means to validate the screen, and consistently produced results similar to those obtained using ATP-Lite-M assay, which confirmed that the ATP-Lite-M assay can be used to accurately measure the extent of CICD.
In a primary screen, U-937 cells (5×10^5 or 7.5×10^5 cells/ml) were first exposed to zVAD-fmk (100 μM). Thirty minutes later the same cells were exposed to a chemical compound from the library (5 mg/ml, dissolved in 0.1-0.5 μl of DMSO, giving a final DMSO concentration of 0.3% to 1.5%). After an additional thirty minutes, TNFα (40 ng/ml) was added to the cell culture medium. The cells were then incubated at 37 C for 72 hours, and were then assayed for cellular ATP levels. […] Compounds which maintained cellular ATP levels were compounds which blocked necrosis triggered by zVAD-fmk and TNFα.
In a secondary screen, the compounds identified from the first screen, above, to decrease necrosis induced by zVAD-fmk and TNFα were assayed for their potency. Serial dilution of each chemical compound was performed and the compounds were administered to U-937 cells, as per the primary screen. The concentrations of each compound were 70 μM, 23 μM, 8 μM, and 2.5 μM. The level of necrosis occurring in response to zVAD-fmk, TNFα, and the various concentrations of chemical compounds was assayed as described above for the primary screen.

FADD deficient JK cells = assay: MNNG-induced death of FADD deficient JK cells; type: cell-based, human; details: 30 μM Nec-1, 5 hours

## methylthiohydantoin-tryptophane [Nec-1]
LC3-II; BALB/c 3T3 cells, 2 μM rapamycin
  LC3-II induction caused by rapamycin, in words: had no effect on the LC3-II induction caused by rapamycin
LC3-II; necroptotic stimuli (TNFα, TNFα-zVAD.fmk, FasL-zVAD.fmk)
  necroptotic LC3-II induction in cells, in words: the appearance of LC3II was efficiently inhibited by Nec-1; also recorded: efficiently blocked the necroptotic LC3-II induction
Jurkat T cells
  inhibition of CICD/necrosis of Jurkat cells, in words: protected against CICD induced by FasL/CHX/zVAD; also recorded: efficiently inhibited by Nec-1; also recorded: inhibited all published examples of necrotic cell death induced by DR activation in the presence of caspase inhibitors
U937 cells
  inhibition of necrosis induced by TNFα/zVAD.fmk, in words: inhibition of cell death of U937 cells treated with TNFα and zVAD.fmk for 72 hours; also recorded: provided expected protection against TNFα/zVAD.fmk; also recorded: efficiently blocked necroptotic death in U937 cells in a concentration-dependent fashion
FADD deficient JK cells
  protection from MNNG-induced death, in words: failed to protect cells from DNA alkylating agent 1-methyl-3-nitro-1-nitrosoguanidine (MNNG)-induced death
